67 compounds from the Bradley open melting point set (2014) can be followed below.

As a reminder, the melting point is the temperature of the solid-liquid transition.

Turning to `c1ccc([Si](c2ccccc2)(c2ccccc2)[Si](c2ccccc2)(c2ccccc2)c2ccccc2)cc1` [hexaphenyldisilane], the melting point stood at 369 °C.
Consider `OC[C@H]1O[C@@H](Oc2ccccc2)[C@H](O)[C@@H](O)[C@H]1O` [phenyl beta-D-galactopyranoside], for which the melting point was 154 °C.
For `CC(C(=O)O)c1cccc(C(=O)c2ccccc2)c1` (configuration not stated) [ketoprofen] the value was 94 °C.
Compound `CCCCCCC(=O)OCC` [ethyl_heptanoate] yielded a melting point of -66 °C.
Regarding `Nc1c(F)cc(Br)cc1F` [4-bromo-2,6-difluoroaniline], the melting point was 64 °C.
For the compound `OB(O)c1cccs1` [thiophene-2-boronic acid], the melting point came to 130 °C.
Compound `C/C=C/C1Nn2c(nnc2-c2cccnc2)S1` (configuration not stated) had a melting point of 121 °C.
With `CCCCCCCCC(C)O` (configuration not stated) [2-decanol] the figure was -5 °C.
With `ClC(Cl)=C(Cl)Cl` [tetrachloroethylene] the figure was -22 °C; with `COC(=O)c1ccc(OC)c(F)c1` [methyl 3-fluoro-4-methoxybenzoate], 71 °C; with `COC(=O)c1cc2c(OC)cccc2[nH]1` [methyl 4-methoxyindole-2-carboxylate], 141 °C.
For `CCCCNCCCC` [di-n-butylamine] the value was -62 °C.
For `CC(C)(C)OC(=O)N[C@@H](CO)Cc1ccccc1` [N-boc-D-phenylalaninol], the melting point amounted to 95 °C.
Take `C#CC1(O)CCCCC1` [1-ethynyl-1-cyclohexanol]: the melting point was 33 °C.
For `CCCOC(=O)c1ccc(O)cc1` [N-propyl 4-hydroxybenzoate], the melting point was determined as 97 °C.
With `COc1ccc(/C=C(\Oc2ccc(Cl)cc2)c2nc3ccccc3s2)cc1` the figure was 138 °C.
With `OCCN1CCN(CCCN2c3ccccc3Sc3ccc(Cl)cc32)CC1` [perphenazine] the figure was 96.9 °C; with `CCC1(CC)C(=O)NC(=O)NC1=O` [5,5-diethylbarbiturate], 190 °C; with `CCCCCCCCCCCc1ccccc1` [Undecylbenzene], -5 °C.
Compound `Cc1cccc(C(=O)O)c1` [3-Methylbenzoic acid] displayed a melting point of 110 °C.
`C/C=C/CC` [trans-2-pentene]: the melting point is -136 °C.
The compound `Cc1ccc(N)c([N+](=O)[O-])c1` [4-methyl-2-nitroaniline] gave a melting point of 117 °C.
For `BrC(c1ccccc1)c1ccccc1` [bromodiphenylmethane] the value was 41 °C.
With `CCOC(=O)/C=C/N(C)C` [ethyl 3-(dimethylamino)acrylate] the figure was 18 °C; with `C=CCCCCCCCC` [1-decene], -66 °C; with `O=C(Oc1ccccc1)c1ccccc1` [phenyl_benzoate], 70 °C.
For `OCc1cccc(CO)c1` [1,3-benzenedimethanol] the value was 58 °C.
As to `Clc1cccc2ccccc12` [1-chloronaphthalene], the melting point is -20 °C.
In turn, `COC(=O)c1cc2ccccc2c(OC(=O)c2ccccc2C)c1C(=O)OC` registered a melting point of 139 °C.
With `c1ccc2c(c1)[nH]c1ccccc12` [Carbazole] the figure was 247 °C; with `CCCc1ccc(O)cc1` [4-propylphenol], 22 °C.
With `CC=1CCCC(C)(C)C=1/C=CC(C)=CC=CC(/C)=CCO` [Vitamin A] the figure was 63.5 °C; with `CCCCCBr` [1-bromopentane], -88 °C.
In turn, `Nc1ccccn1` [2-aminopyridine] came in with a melting point of 58 °C.
For `Cc1cc(C)c(C)c(CCl)c1C` [2,3,5,6-tetramethylbenzyl chloride] the value was 70 °C; for `CCCC(C)C1(CC)C(=O)NC(=O)NC1=O` (configuration not stated) [pentobarbital], 130 °C; for `Clc1ccc(COC(Cn2ccnc2)c2ccc(Cl)cc2Cl)cc1` (configuration not stated) [econazole], 87 °C.
Compound `Cc1ccc(N)cc1` [p-toluidine] registered a melting point of 44 °C.
`O=C1c3c(N(\C=C1\C(=O)O)CC)cc2OCOc2c3` [oxolinic acid] gave a melting point of 315 °C.
For `CC(CO)(CO)CO` [1,1,1-tris(hydroxymethyl)ethane] the value was 190 °C.
As for `CC=C(/C)CCC` [3-methyl-trans-2-hexene], the melting point is -129 °C.
For `C=CC(=O)OC` [Methyl acrylate] the value was -75 °C.
With `CC1CCC(C(C)C)C(OC(=O)/C(=C/c2ccccc2)Cc2ccccc2)C1` (configuration not stated) the figure was 65 °C; with `O=[N+]([O-])c1ccc(O)c([N+](=O)[O-])c1` [2,4-dinitrophenol], 107 °C; with `O=[N+]([O-])c1ccccc1CBr` [2-nitrobenzyl bromide], 47 °C.
For `C=CCc1ccc(O)c(OC)c1` [4-Allyl-2-methoxyphenol] the value was -9 °C; for `C1COCOC1` [1,3-Dioxane], -42 °C.
For the compound `CCCCCCCCC(=O)CC` [3-undecanone], the melting point worked out at 13 °C.
Turning to `CCCN(CC1CC1)c1c([N+](=O)[O-])cc(C(F)(F)F)cc1[N+](=O)[O-]` [Profluralin], the melting point is 32 °C.
With `COC(=O)c1cccc(N=C=O)c1` [3-(methoxycarbonyl)phenyl isocyanate] the figure was 37 °C.
For `CC1(C)CC(=O)CC(=O)C1` [dimedone] the value was 148 °C.
As to `Nc1cccc(O)c1` [3-aminophenol], the melting point was found to be 124 °C.
For `CCOC(=O)/C(=N/Nc1cc(Cl)ccc1Cl)C(=O)C(F)(F)F` the value was 147 °C.
With `CC(=O)Oc1ccccc1C(N)=O` [o-acetoxybenzamide] the figure was 138 °C; with `C[C@]12CC[C@H](O)CC1=CC[C@@H]1[C@@H]2CC[C@]2(C)C(=O)CC[C@@H]12` [prasterone], 140 °C; with `Oc1ccc(F)cc1` [4-fluorophenol], 46.5 °C.
For `COc1ccccc1-c1ccccc1` [2-methoxybiphenyl] the value was 31 °C.
As to `Oc1ccc(Oc2ccccc2)cc1` [4-phenoxyphenol], the melting point was found to be 84 °C.
Consider `CC(=O)N(C(C)=O)c1cc(/C=C/C(=O)O)ccc1/C=C/C(=O)O`, for which the melting point came out at 313 °C.
For `NC1=NCC(c2ccccc2)O1` (configuration not stated) [aminorex] the value was 136 °C; for `CC(C)(C)Cl` [tert-butyl chloride], -26 °C; for `CCOC(N)=O` [Ethyl carbamate], 49 °C.
Consider `OCCc1ccccc1` [2-phenylethanol], for which the melting point is -27 °C.
With `COC(=O)c1ccc(N)nc1` [methyl 6-aminonicotinate] the figure was 155 °C.
With `O=[N+]([O-])c1cccc(I)c1` [1-iodo-3-nitrobenzene] the figure was 38 °C.
Take `CN(C)c1ccc(N=C=S)cc1` [4-dimethylaminophenyl isothiocyanate]: the melting point was 67 °C.
For `CN(C)C(=O)Nc1ccc(Cl)c(Cl)c1` [Diuron] the value was 159 °C.
